The test addresses T1, SIRT1 (Homo sapiens, UniProt Q96EB6).
T1 sequence (Q96EB6 1-747): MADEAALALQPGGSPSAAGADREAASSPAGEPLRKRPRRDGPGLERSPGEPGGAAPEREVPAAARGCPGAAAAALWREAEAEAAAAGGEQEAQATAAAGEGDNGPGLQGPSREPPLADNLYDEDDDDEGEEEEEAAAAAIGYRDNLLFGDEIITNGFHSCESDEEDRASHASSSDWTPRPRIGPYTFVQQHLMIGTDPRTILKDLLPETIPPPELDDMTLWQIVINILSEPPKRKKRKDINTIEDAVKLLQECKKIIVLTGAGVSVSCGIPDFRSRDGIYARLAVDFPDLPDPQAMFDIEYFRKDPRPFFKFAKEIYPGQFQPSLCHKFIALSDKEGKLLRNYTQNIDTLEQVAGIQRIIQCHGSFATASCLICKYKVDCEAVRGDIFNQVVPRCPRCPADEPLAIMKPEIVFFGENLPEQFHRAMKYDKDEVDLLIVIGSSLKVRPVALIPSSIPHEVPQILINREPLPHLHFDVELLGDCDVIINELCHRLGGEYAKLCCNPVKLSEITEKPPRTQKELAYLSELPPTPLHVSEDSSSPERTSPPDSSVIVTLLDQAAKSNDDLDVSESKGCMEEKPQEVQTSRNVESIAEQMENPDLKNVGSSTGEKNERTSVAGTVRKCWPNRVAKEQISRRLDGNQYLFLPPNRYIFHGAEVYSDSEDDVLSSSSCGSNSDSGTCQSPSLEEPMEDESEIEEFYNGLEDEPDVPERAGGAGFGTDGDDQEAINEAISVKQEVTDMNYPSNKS
Nature of the test: Mass spectrometry based assay to identify modulators (activators) of SIRT1 activity. The test is classed as biochemical. The settings on record: 0.5 μM peptide substrate, 120 μM βNAD+, 10 nM SIRT1, 25 minutes at 25° C.; for EC1.5: SIRT1 activation. The source says:
A mass spectrometry based assay was used to identify modulators of SIRT1 activity. The mass spectrometry based assay utilizes a peptide having 20 amino acid residues as follows: Ac-EE-K(biotin)-GQSTSSHSK(Ac)NleSTEG-K(5TMR)-EE-NH2 (SEQ ID NO: 1) wherein K(Ac) is an acetylated lysine residue and Nle is a norleucine. The peptide is labeled with the fluorophore 5TMR (excitation 540 nm/emission 580 nm) at the C-terminus. The sequence of the peptide substrate is based on p53 with several modifications. In addition, the methionine residue naturally present in the sequence was replaced with the norleucine because the methionine may be susceptible to oxidation during synthesis and purification.
The mass spectrometry assay is conducted as follows: 0.5 μM peptide substrate and 120 μM βNAD^+ is incubated with 10 nM SIRT1 for 25 minutes at 25° C. in a reaction buffer (50 mM Tris-acetate pH 8, 137 mM NaCl, 2.7 mM KCl, 1 mM MgCl2, 5 mM DTT, 0.05% BSA). Test compounds may be added to the reaction as described above. […] After the 25 minute incubation with SIRT1, 10 μL of 10% formic acid is added to stop the reaction. Reactions are sealed and frozen for later mass spec analysis. Determination of the mass of the substrate peptide allows for precise determination of the degree of acetylation (i.e. starting material) as compared to deacetylated peptide (product).
A control for inhibition of sirtuin activity is conducted by adding 1 μL of 500 mM nicotinamide as a negative control at the start of the reaction (e.g., permits determination of maximum sirtuin inhibition). A control for activation of sirtuin activity is conducted using 10 nM of sirtuin protein, with 1 μL of DMSO in place of compound, to determine the amount of deacetylation of the substrate at a given timepoint within the linear range of the assay. This timepoint is the same as that used for test compounds and, within the linear range, the endpoint represents a change in velocity.
For the above assay, SIRT1 protein was expressed and purified as follows. […] The protein was expressed by induction with 1 mM IPTG as an N-terminal His-tag fusion protein at 18° C. overnight and harvested at 30,000×g. Cells were lysed with lysozyme in lysis buffer (50 mM Tris-HCl, 2 mM Tris[2-carboxyethyl]phosphine (TCEP), 10 μM ZnCl2, 200 mM NaCl) and further treated with sonication for 10 min for complete lysis. The protein was purified over a Ni-NTA column (Amersham) and fractions containing pure protein were pooled, concentrated and run over a sizing column (Sephadex S200 26/60 global). The peak containing soluble protein was collected and run on an Ion-exchange column (MonoQ). Gradient elution (200 mM-500 mM NaCl) yielded pure protein. This protein was concentrated and dialyzed against dialysis buffer (20 mM Tris-HCl, 2 mM TCEP) overnight. The protein was aliquoted and frozen at −80° C. until further use.
Sirtuin modulating compounds that activated SIRT1 were identified using the assay described above and are shown below in Table 1. The EC1.5 values for the activating compounds are represented by A (EC1.5≦1 uM), B (EC1.5>1 and ≦10 uM), or C (EC1.5>10 uM). The percent maximum fold activation is represented by A (Fold activation≧300%), B (Fold Activation≧150% and <300%), or C (Fold Activation<150%).

In the case of `O=C(Nc1ccccc1-c1nc2cccnc2s1)c1nc(-c2ccccc2)sc1CN1CCOCC1` [Compound 10, 5-(morpholinomethyl)-2-phenyl-N-(2-(thiazolo[5,4-b]pyridin-2-yl)phenyl)thiazole-4-carboxamide], the “FOLD ACT. (percent maximum fold activation)” value is “B (Fold Activation≧150% and <300%)”; the EC1.5 result is “A (EC1.5≦1 uM)”.
For the compound `COCCN1CCN(Cc2sc(-c3ccccc3)nc2C(=O)Nc2ccccc2-c2nc3cccnc3s2)CC1` [Compound 12, 5-((4-(2-methoxyethyl)piperazin-1-yl)methyl)-2-phenyl-N-(2-(thiazolo[5,4-b]pyridin-2-yl)phenyl)thiazole-4-carboxamide], the “FOLD ACT. (percent maximum fold activation)” value is given as “A (Fold activation≧300%)” and the EC1.5 result is “A (EC1.5≦1 uM)”.
Consider `O=C(Nc1ccccc1-c1nc2cccnc2s1)c1nc(-c2ccccc2)sc1CN1CCCC1` [Compound 11, 2-phenyl-5-(pyrrolidin-1-ylmethyl)-N-(2-(thiazolo[5,4-b]pyridin-2-yl)phenyl)thiazole-4-carboxamide], for which the “FOLD ACT. (percent maximum fold activation)” value is “C (Fold Activation<150%)”; the EC1.5 result was “B (EC1.5>1 and ≦10 uM)”.
Turning to `COCC#Cc1sc(-c2ccccc2)nc1C(=O)Nc1ccccc1-c1nc2cc(CN3CCCC3)cnc2s1` [Compound 5, 5-(3-methoxyprop-1-ynyl)-2-phenyl-N-(2-(6-(pyrrolidin-1-ylmethyl)thiazolo[5,4-b]pyridin-2-yl)phenyl)thiazole-4-carboxamide], the “FOLD ACT. (percent maximum fold activation)” value is “B (Fold Activation≧150% and <300%)”; the EC1.5 entry is “A (EC1.5≦1 uM)”.
Take `COCCN1CCN(Cc2cnc3sc(-c4ccccc4NC(=O)c4nc(-c5ccccc5)oc4C(F)(F)F)nc3c2)CC1` [Compound 14, N-(2-(6-((4-(2-methoxyethyl)piperazin-1-yl)methyl)thiazolo[5,4-b]pyridin-2-yl)phenyl)-2-phenyl-5-(trifluoromethyl)oxazole-4-carboxamide]: the “FOLD ACT. (percent maximum fold activation)” value is “B (Fold Activation≧150% and <300%)”; the EC1.5 result is “A (EC1.5≦1 uM)”.
For the compound `COCCN1CCN(Cc2oc(-c3ccccc3)nc2C(=O)Nc2ccccc2-c2nc3cccnc3s2)CC1` [Compound 19, 5-((4-(2-methoxyethyl)piperazin-1-yl)methyl)-2-phenyl-N-(2-(thiazolo[5,4-b]pyridin-2-yl)phenyl)oxazole-4-carboxamide], the “FOLD ACT. (percent maximum fold activation)” value is on record as “C (Fold Activation<150%)” and the EC1.5 entry is “C (EC1.5>10 uM)”.
For the compound `O=C(Nc1ccccc1-c1nc2cccnc2s1)c1nc(-c2ccccc2)sc1CCCN1CCCC1` [Compound 8, 2-phenyl-5-(3-(pyrrolidin-1-yl)propyl)-N-(2-(thiazolo[5,4-b]pyridin-2-yl)phenyl)thiazole-4-carboxamide], the “FOLD ACT. (percent maximum fold activation)” value is given as “A (Fold activation≧300%)” and the EC1.5 entry was “A (EC1.5≦1 uM)”.
The like results for `CC(C)N1CCN(Cc2sc(-c3ccccc3)nc2C(=O)Nc2ccccc2-c2nc3cccnc3s2)CC1` [Compound 9, 5-((4-isopropylpiperazin-1-yl)methyl)-2-phenyl-N-(2-(thiazolo[5,4-b]pyridin-2-yl)phenyl)thiazole-4-carboxamide] were, in that order, “A (Fold activation≧300%)” and “A (EC1.5≦1 uM)”.
For `COCCN1CCN(Cc2cnc3sc(-c4ccccc4NC(=O)c4nc(-c5ccccc5)cs4)nc3c2)CC1` [Compound 23, N-(2-(6-((4-(2-methoxyethyl)piperazin-1-yl)methyl)thiazolo[5,4-b]pyridin-2-yl)phenyl)-4-phenylthiazole-2-carboxamide] the same measures were “A (Fold activation≧300%)” and “A (EC1.5≦1 uM)”.
As for `Cc1oc(-c2ccccc2)nc1C(=O)Nc1ccccc1-c1nc2cc(CN3CCOCC3)cnc2s1` [Compound 16, 5-methyl-N-(2-(6-(morpholinomethyl)thiazolo[5,4-b]pyridin-2-yl)phenyl)-2-phenyloxazole-4-carboxamide], the “FOLD ACT. (percent maximum fold activation)” value is “B (Fold Activation≧150% and <300%)”; the EC1.5 entry is listed as “A (EC1.5≦1 uM)”.
On to `COCCN1CCN(Cc2cnc3sc(-c4ccccc4NC(=O)c4csc(-c5ccccc5)n4)nc3c2)CC1` [Compound 1, N-(2-(6-((4-(2-methoxyethyl)piperazin-1-yl)methyl)thiazolo[5,4-b]pyridin-2-yl)phenyl)-2-phenylthiazole-4-carboxamide], for which the “FOLD ACT. (percent maximum fold activation)” value is listed as “A (Fold activation≧300%)” and the EC1.5 entry is listed as “A (EC1.5≦1 uM)”.
As for `COCCCc1sc(-c2ccccc2)nc1C(=O)Nc1ccccc1-c1nc2cc(CN3CCCC3)cnc2s1` [Compound 4, 5-(3-methoxypropyl)-2-phenyl-N-(2-(6-(pyrrolidin-1-ylmethyl)thiazolo[5,4-b]pyridin-2-yl)phenyl)thiazole-4-carboxamide], the “FOLD ACT. (percent maximum fold activation)” value is “B (Fold Activation≧150% and <300%)”; the EC1.5 result is given as “A (EC1.5≦1 uM)”.
`O=C(Nc1ccccc1-c1nc2cc(CN3CCCC3)cnc2s1)c1nc(-c2ccccc2)cs1` [Compound 22, 4-phenyl-N-(2-(6-(pyrrolidin-1-ylmethyl)thiazolo[5,4-b]pyridin-2-yl)phenyl)thiazole-2-carboxamide]: the “FOLD ACT. (percent maximum fold activation)” value is “B (Fold Activation≧150% and <300%)”; the EC1.5 result is “A (EC1.5≦1 uM)”.
As for `O=C(Nc1ccccc1-c1nc2cc(CN3CCOCC3)cnc2s1)c1nc(-c2ccccc2)cs1` [Compound 24, N-(2-(6-(morpholinomethyl)thiazolo[5,4-b]pyridin-2-yl)phenyl)-4-phenylthiazole-2-carboxamide], the “FOLD ACT. (percent maximum fold activation)” value is “B (Fold Activation≧150% and <300%)”; the EC1.5 result is given as “A (EC1.5≦1 uM)”.
As to `O=C(Nc1ccccc1-c1nc2cc(CN3CCOCC3)cnc2s1)c1csc(-c2ccccc2)n1` [Compound 2, N-(2-(6-(morpholinomethyl)thiazolo[5,4-b]pyridin-2-yl)phenyl)-2-phenylthiazole-4-carboxamide], the “FOLD ACT. (percent maximum fold activation)” value is “A (Fold activation≧300%)” and the EC1.5 result is reported as “A (EC1.5≦1 uM)”.
The like results for `CC(C)(C)OC(=O)N1CCN(Cc2oc(-c3ccccc3)nc2C(=O)Nc2ccccc2-c2nc3cccnc3s2)CC1` [Compound 21, tert-butyl 4-((2-phenyl-4-(2-(thiazolo[5,4-b]pyridin-2-yl)phenylcarbamoyl)oxazol-5-yl)methyl)piperazine-1-carboxylate] were, in that order, “C (Fold Activation<150%)” and “C (EC1.5>10 uM)”.

The record behind these values is patent US8492401B2, “Thiazolopyridine sirtuin modulating compounds” (Sirtris Pharmaceuticals, priority 2008, dated 2013).
